Experiments:
Assay type in all cases: in vivo
[1] = test system: German cockroach 2nd instars (Blattella germanica); assay: Continuous, low-dose ingestion exposure (treated cornmeal)
[2] = test system: Red Imported Fire Ant (RIFA) (Solenopsis invicta); assay: Laboratory ant bait study, 3-4 day exposure to bait, brood reduction
Protocol: (§1) Laboratory ant bait studies were carried out with Red Imported Fire Ant (RIFA) (Solenopsis invicta) and Pharaoh Ant (Monomorium pharaonis). Chitin synthesis inhibitors, such as the compounds of the invention, control ants by killing the molting larvae and/or pupae and potentially preventing the hatching of eggs. Because adult workers are not affected, control is measured by effects on the brood. The studies involved 3-4 day exposure to bait. These limited exposure studies more accurately represent real world bait availability than continuous exposure.

[3] = test system: Pharaoh Ant (Monomorium pharaonis); assay: as above; settings: concentration tested 0.1%
Protocol: as §1

[4] = test system: Subterranean Termite (Reticulitermes flavipes); assay: Continuous exposure (56 days) to treated paper
From the text: (§2) Subterranean Termite (Reticulitermes flavipes)
Continuous exposure (56 days) to treated paper Rates: 0.78, 3.12, 12.5, 50, 200 ppm

[5] = test system: Cat Flea (Ctenocephalides fells); assay: Continuous exposure of larvae to treated media, impact on subsequent adult emergence
From the text: Cat Flea (Ctenocephalides fells)
Continuous exposure of larvae to treated media, impact on subsequent adult emergence Rates: 0.1, 1.0, 10, 100, 1000 ppm

[6] = test system: German cockroach 2nd instars (Blattella germanica); assay: Limited ingestion exposure (48 hr) to treated cornmeal
From the text: German cockroach 2nd instars (Blattella germanica)
Limited ingestion exposure (48 hr) to treated cornmeal Rates: 1, 10, 100, 1000, 10000 ppm

[7] = test system: Subterranean Termite (Reticulitermes flavipes); assay: Limited exposure (7 days), mortality determined at 14, 28, 42 and 56 days
From the text: as §2
Limited exposure (7 days) with mortality determined at 14, 28, 42, and 56 […]

[8] = test system: Daphnia; assay: Activity against Daphnia, 48 hr exposure to treated water
From the text: 48 hr exposure to treated water

Structure (SMILES) | LC50 (ppm) 21 days [1] | LC50 (ppm) 42 days [1] | Time to Achieve 50% Brood Reduction ([2]; concentration tested 0.1%) | Time to Achieve 90% Brood Reduction ([2]; concentration tested 0.1%) | Time to Achieve 50% Brood Reduction ([3]; 3-4 day exposure to bait) | Percent brood reduction achieved at end of study ([3]; at 13 wks) | LT50 (days) for 200 ppm trt [4] | LC50 (ppm) 35 days [4] | LC50 (ppm) 56 days [4] | LC50 (ppm) [5] | LC90 (ppm) [5] | LC50 (ppm) 21 days [6] | LC50 (ppm) 42 days [6] | LT50 (days) for 10000 ppm treatment [7] | LC50 (ppb) in water [8] | Time to Achieve 50% Brood Reduction ([2]; concentration tested 0.25%) | Time to Achieve 90% Brood Reduction ([2]; concentration tested 0.25%)
O=C(NC(=O)c1c(F)cccc1F)Nc1cc(Cl)c(OC(F)(F)C(F)C(F)(F)F)c(Cl)c1F (stereo not drawn) [Compound 1] | < 2.2 ppm | <0.78 ppm | 2 wks | 3 wks | 4 wks | 70% | 27.6 days | 31.2 ppm | < 0.78 ppm | 2.8 ppm | 22 ppm | < 22.2 ppm | < 9.1 ppm | 23.7 days | 5.0 ppb | – | –
CCN(C(=O)NC(=O)c1c(F)cccc1F)c1cc(Cl)c(OC(F)(F)C(F)C(F)(F)F)c(Cl)c1F (stereo not drawn) [Compound 2, N-[3,5-Dichloro-2-fluoro-4-(1,1,2,3,3,3-hexafluoropropoxy)phenyl]-N'-(2,6-difluorobenzoyl)-N-ethylurea] | 0.35 ppm | 0.26 ppm | – | – | – | – | – | < 0.78 ppm | < 0.78 ppm | 12.7 ppm | 18.6 ppm | 21.1 ppm | 12.8 ppm | – | – | – | –
CCN(C(=O)Nc1cc(Cl)c(OC(F)(F)C(F)C(F)(F)F)c(Cl)c1F)C(=O)c1c(F)cccc1F (stereo not drawn) [Compound 3, N-[3,5-Dichloro-2-fluoro-4-(1,1,2,3,3,3-hexafluoropropoxy)phenyl]-N'-(2,6-difluorobenzoyl)-N'-ethyl urea] | 8.0 ppm | 1.5 ppm | – | – | – | – | – | – | – | – | – | – | – | – | > 100 ppb | – | –
O=C(NC(=O)c1c(F)cccc1F)Nc1cc(Cl)c(OC(F)(F)C(F)F)c(Cl)c1 [hexaflumuron, reference compound] | > 200 ppm | > 200 ppm | – | – | – | – | 33.8 days | > 200 ppm | 1.3 ppm | 65.7 ppm | 333.5 ppm | > 10,000 ppm | > 10,000 ppm | 32.9 days | 68.1 ppb | 4 wks | 10 wks

From EP0936867B1, “BENZOYLPHENYLUREA INSECTICIDES AND METHODS OF USING CERTAIN BENZOYLPHENYLUREAS TO CONTROL COCKROACHES, ANTS, FLEAS, AND TERMITES” (Dow AgroSciences LLC, priority 1996, dated 1998)
